Several values for one entry are separate records, joined by “and”; a condition that tells them apart may be missing. Equal entries are not always repeated. Where two headings read alike, the source gives them in different places.
Assays:
cabbage looper [1] = tested on: cabbage looper
black cutworm = assay: Leaf disk mortality assay, Y. entomophaga cells with chemical insecticides; details: for LT50 Chem.: black cutworm
Colorado potato beetle = assay: Tomato leaf disk mortality assay, Y. entomophaga cells with chemical insecticides; details: for mortality at 120 µg/mL: Leptinotarsa decemlineata, in Solanum lycopersicum, foliar
diamondback moth = assay: whole plant or invertebrate; details: for LT50 (95% confidence intervals) in days / LT50 (95% confidence intervals): 2nd instar diamondback moth; for LT50 (95% confidence intervals) in days: Probit analysis; for % Mort. Chem. / LT50 Chem.: Diamondback moth
Excerpt: (§1) These were set to dry for 1 hr.
as §1
These were set to dry for 1 hr. Cabbage disks were then dipped in either 1% Luria broth (LB) media solution (controls and thiacloprid alone treatments) or in 1% cell free filtrate from a culture Y. entomophaga isolate O24G3R (Y. entomophaga alone or in combination with thiacloprid treatments).

fall armyworm = assay: Leaf disk mortality assay, Y. entomophaga cells with chemical insecticides; details: for LT50 (95% confidence intervals) in days / LT50 (95% confidence intervals): 3rd instar; for mortality at 300 µg/mL / mortality at 19 µg/mL / mortality at 60 µg/mL: Spodoptera frugiperda, foliar; for % Mort. Chem. / LT50 Chem.: fall armyworm
cabbage looper [2] = details: Cabbage Looper, clothianidin 60 mg/L
Protocol: To produce cell free filtrates, cultures of Yersinia entomophaga grown in LB medium were centrifuged at 11,448 (g) for 10 minutes. The supernatant was decanted from the centrifuged pellet and filtered through a 0.22 μm filter. Assays were performed to determine concentrations of Yen-TC (toxin complex) using ELISA, and chitinase by measuring chitinase activity on specific substrates. […] This was done to estimate relative potency of the cell free filtrates. Insects were first pre-screened with a range of dilutions of cell free filtrates to select a concentration that provided moderate activity. […] Based on these initial screens, undiluted cell free filtrate was used for cabbage looper, fall armyworm, black cutworm, and Colorado potato beetle. […] In each of the Examples below, this is expressed as 1%.
Cabbage leaf disks were dipped in either acetone (controls and Y. entomophaga alone treatments) or novaluron (Sigma 32419) at 1.0 mg/L in acetone. These were set to dry for 1 hr. […] After the cabbage disks had dried for 1 hr, a single 3rd instar cabbage looper was added to each individual cabbage disk. A total of 20 insects were evaluate for each treatment. Insects were observed daily and scored as live or dead.

Compound: CC1(C)C(C=C(Cl)Cl)C1C(=O)OC(C#N)c1ccc(F)c(Oc2ccccc2)c1 (stereo not drawn) [Cyfluthrin]
- LT50 Chem. (cabbage looper [1]; cabbage looper, Cyfluthrin alone […]): 7.33 days
- % Mortality (4DAT) (cabbage looper [1]; in vivo): 30%
- % Mortality (5DAT) (cabbage looper [1]; in vivo): 50%
- LT75 (95% confidence intervals) (cabbage looper [1]; in vivo): 7.326 days
- LT50 (95% confidence intervals) (black cutworm; 3rd instar, cyfluthrin […], isolate O43NEW 1×10^4 cfu/mL): 8.82 days
- LT50 Chem. (black cutworm; Cyfluthrin alone […]): 8.82 days

Compound: CC[S+]([O-])c1c(C#N)nn(-c2c(Cl)cc(C(F)(F)F)cc2Cl)c1N (stereo not drawn) [Ethiprole]
- LT50 (95% confidence intervals) (Colorado potato beetle; 4th instar larva, ethiprole 120 mg/L, isolate O43NEW 1×10^7 cfu/mL): 8.90 days
- % Mort. Chem. (Colorado potato beetle; Colorado potato beetle, Ethiprole 120 mg/L, 5 DAT): 21%
- LT50 Chem. (Colorado potato beetle; Colorado potato beetle, Ethiprole alone 120 mg/L): 8.90 days
- mortality at 120 µg/mL (Colorado potato beetle; 72 h, read-out: % Mortality (3DAT)): 21%
- mortality at 120 µg/mL (Colorado potato beetle; 96 h, read-out: % Mortality (4DAT)): 21%
- mortality at 120 µg/mL (Colorado potato beetle; 120 h, read-out: % Mortality (5DAT)): 21%
- mortality at 120 µg/mL (Colorado potato beetle; 144 h, read-out: % Mortality (6DAT)): 37%

Compound: CCOC(=O)OC1=C(c2cc(C)ccc2C)C(=O)N[C@]12CC[C@@H](OC)CC2 [Spirotetramat]
- LT50 (95% confidence intervals) in days (diamondback moth; spirotetramat 30 mg/L, 1% O24G3R filtrate): 23.41 (19.1-28.86) days
- LT50 (95% confidence intervals) in days (diamondback moth; spirotetramat 30 mg/L, 1% O43NEW filtrate): 21.02 (16.86-26.76) days
- % Mort. Chem. (diamondback moth; spirotetramat 30 mg/L, 6 DAT, O43NEW experiment): 11%
- % Mort. Chem. (diamondback moth; spirotetramat 30 mg/L, 10 DAT, O24G3R experiment): 0%
- LT50 Chem. (diamondback moth; spirotetramat 30 mg/L, O24G3R experiment): 23.41 days
- LT50 Chem. (diamondback moth; spirotetramat 30 mg/L, O43NEW experiment): 21.02 days
- mortality at 30 µg/mL (diamondback moth; Plutella xylostella, foliar, 96 h, read-out: % Mortality (4DAT), diamondback moth, spirotetramat 30 mg/L, 1% O43NEW filtrate, 4 DAT, Abbott's corrected): 5%
- mortality at 30 µg/mL (diamondback moth; Plutella xylostella, foliar, 120 h, read-out: % Mortality (5DAT), diamondback moth, spirotetramat 30 mg/L, 1% O43NEW filtrate, 5 DAT, Abbott's corrected): 5%
- mortality at 30 µg/mL (diamondback moth; Plutella xylostella, foliar, 144 h, read-out: % Mortality (6DAT), diamondback moth, spirotetramat 30 mg/L, 1% O24G3R filtrate, 6 DAT, Abbott's corrected): 0%
- mortality at 30 µg/mL (diamondback moth; Plutella xylostella, foliar, 144 h, read-out: % Mortality (6DAT), diamondback moth, spirotetramat 30 mg/L, 1% O43NEW filtrate, 6 DAT, Abbott's corrected): 11%
- mortality at 30 µg/mL (diamondback moth; Plutella xylostella, foliar, 168 h, read-out: % Mortality (7DAT), diamondback moth, spirotetramat 30 mg/L, 1% O43NEW filtrate, 7 DAT, Abbott's corrected): 16%
- mortality at 30 µg/mL (diamondback moth; Plutella xylostella, foliar, 240 h, read-out: % Mortality (10DAT), diamondback moth, spirotetramat 30 mg/L, 1% O24G3R filtrate, 10 DAT, Abbott's corrected): 0%
- mortality at 30 µg/mL (diamondback moth; Plutella xylostella, foliar, 264 h, read-out: % Mortality (11DAT), diamondback moth, spirotetramat 30 mg/L, 1% O24G3R filtrate, 11 DAT, Abbott's corrected): 0%
- mortality at 30 µg/mL (diamondback moth; Plutella xylostella, foliar, 336 h, read-out: % Mortality (14DAT), diamondback moth, spirotetramat 30 mg/L, 1% O24G3R filtrate, 14 DAT, Abbott's corrected): 0%
- LT50 (95% confidence intervals) in days (fall armyworm; spirotetramat 300 mg/L, isolate O43NEW 1×10^5 cfu/mL): 10.29 (9.39-11.29) days
- mortality at 300 µg/mL (fall armyworm; 144 h, read-out: % Mortality (6DAT), 3rd instar, spirotetramat 300 mg/L, isolate O43NEW 1×10^5 cfu/mL): 6%
- mortality at 300 µg/mL (fall armyworm; 168 h, read-out: % Mortality (7DAT), 3rd instar, spirotetramat 300 mg/L, isolate O43NEW 1×10^5 cfu/mL): 13%
- % Mort. Chem. (fall armyworm; Spirotetramat 300 mg/L, 6 DAT): 6%
- LT50 Chem. (fall armyworm; Spirotetramat alone 300 mg/L): 10.29 days

Compound: Cc1cc(C(F)(C(F)(F)F)C(F)(F)F)ccc1NC(=O)c1cccc(I)c1C(=O)NC(C)(C)CS(C)(=O)=O [Flubendiami-de]
- LT50 Chem. (black cutworm; Flubendiami-de alone 0.2 mg/L): 4.83 days
- LT50 Chem. (black cutworm; Flubendiami-de alone 0.59 mg/L): 4.99 days

Compound: CCOP(=S)(OCC)Oc1nc(Cl)c(Cl)cc1Cl [Chlorpyrifos]
- LT50 (95% confidence intervals) (diamondback moth; chlorpyrifos 3.8 mg/L, O43NEW filtrate 1%, alone or combined): 3.72 days
- LT50 Chem. (diamondback moth; chlorpyrifos 3.8 mg/L): 3.72 days
- % Mort. Chem. (diamondback moth; chlorpyrifos 3.8 mg/L, 4 DAT): 74%
- mortality at 3.8 µg/mL (diamondback moth; Plutella xylostella, foliar, 96 h, read-out: % Mortality (4DAT), 2nd instar diamondback moth, chlorpyrifos 3.8 mg/L, O43NEW filtrate 1%, alone or combined, 4 DAT, Abbott's corrected): 74%
- LT50 (95% confidence intervals) in days (fall armyworm; chlorpyrifos 19 mg/L, isolate O24G3R 1×10^5 cfu/mL): 8.02 (7.22-8.91) days
- LT50 (95% confidence intervals) in days (fall armyworm; chlorpyrifos 19 mg/L, isolate O24KEK 1×10^5 cfu/mL): 8.02 (7.22-8.91) days
- LT50 (95% confidence intervals) in days (fall armyworm; chlorpyrifos 19 mg/L, isolate O43NEW 1×10^5 cfu/mL): 6.83 (6.09-7.66) days
- LT50 (95% confidence intervals) (fall armyworm; chlorpyrifos 19 mg/L, isolate O333A4 1×10^5 cfu/mL): 8.02 days
- mortality at 19 µg/mL (fall armyworm; 72 h, read-out: % Mortality (3DAT), 3rd instar, chlorpyrifos 19 mg/L, isolate O43NEW 1×10^5 cfu/mL): 40%
- mortality at 19 µg/mL (fall armyworm; 96 h, read-out: % Mortality (4DAT), 3rd instar, chlorpyrifos 19 mg/L, isolate O43NEW 1×10^5 cfu/mL): 45%
- mortality at 19 µg/mL (fall armyworm; 96 h, read-out: % Mortality (4DAT), 3rd instar, chlorpyrifos 19 mg/L, isolate O333A4 1×10^5 cfu/mL): 35%
- mortality at 19 µg/mL (fall armyworm; 120 h, read-out: % Mortality (5DAT), 3rd instar, chlorpyrifos 19 mg/L, isolate O24G3R 1×10^5 cfu/mL): 35%
- mortality at 19 µg/mL (fall armyworm; 120 h, read-out: % Mortality (5DAT), 3rd instar, chlorpyrifos 19 mg/L, isolate O333A4 1×10^5 cfu/mL): 35%
- mortality at 19 µg/mL (fall armyworm; 144 h, read-out: % Mortality (6DAT), 3rd instar, chlorpyrifos 19 mg/L, isolate O24G3R 1×10^5 cfu/mL): 35%
- mortality at 19 µg/mL (fall armyworm; 144 h, read-out: % Mortality (6DAT), 3rd instar, chlorpyrifos 19 mg/L, isolate O24KEK 1×10^5 cfu/mL): 35%
- mortality at 19 µg/mL (fall armyworm; 144 h, read-out: % Mortality (6DAT), 3rd instar, chlorpyrifos 19 mg/L, isolate O333A4 1×10^5 cfu/mL): 35%
- mortality at 19 µg/mL (fall armyworm; 168 h, read-out: % Mortality (7DAT), 3rd instar, chlorpyrifos 19 mg/L, isolate O24G3R 1×10^5 cfu/mL): 40%
- mortality at 19 µg/mL (fall armyworm; 168 h, read-out: % Mortality (7DAT), 3rd instar, chlorpyrifos 19 mg/L, isolate O24KEK 1×10^5 cfu/mL): 40%
- mortality at 19 µg/mL (fall armyworm; 168 h, read-out: % Mortality (7DAT), 3rd instar, chlorpyrifos 19 mg/L, isolate O333A4 1×10^5 cfu/mL): 40%
- % Mort. Chem. (fall armyworm; Chlorpyrifos 19 mg/L, 3 DAT): 40%
- % Mort. Chem. (fall armyworm; Chlorpyrifos 19 mg/L, 5 DAT): 35%
- % Mort. Chem. (fall armyworm; Chlorpyrifos 19 mg/L, 6 DAT (row with O24KEK)): 35%
- % Mort. Chem. (fall armyworm; Chlorpyrifos 19 mg/L, 6 DAT (row with O333A4)): 35%
- LT50 Chem. (fall armyworm; Chlorpyrifos alone 19 mg/L): 6.83 days and 8.02 days

Compound: CN/C(=N\[N+](=O)[O-])NCc1cnc(Cl)s1 [Clothianidin]
- LT50 (95% confidence intervals) (diamondback moth; clothianidin 60 mg/L, O43NEW filtrate 1%, alone or combined): 6.120 days
- LT50 Chem. (diamondback moth; clothianidin 60 mg/L): 6.12 days
- % Mort. Chem. (diamondback moth; clothianidin 60 mg/L, 4 DAT): 47%
- mortality at 60 µg/mL (diamondback moth; Plutella xylostella, foliar, 96 h, read-out: % Mortality (4DAT), 2nd instar diamondback moth, clothianidin 60 mg/L, O43NEW filtrate 1%, alone or combined, 4 DAT, Abbott's corrected): 47%
- mortality at 60 µg/mL (diamondback moth; Plutella xylostella, foliar, 120 h, read-out: % Mortality (5DAT), 2nd instar diamondback moth, clothianidin 60 mg/L, O43NEW filtrate 1%, alone or combined, 5 DAT, Abbott's corrected): 53%
- LT50 Chem. (cabbage looper [2]): 9.07 days
- % Mort. Chem. (cabbage looper [2]; 5 DAT): 30%
- LT50 (95% confidence intervals) in days (fall armyworm; clothianidin 60 mg/L, isolate O24G3R 1×10^5 cfu/mL): 9.38 (8.57-10.27) days
- LT50 (95% confidence intervals) in days (fall armyworm; clothianidin 60 mg/L, isolate O43NEW 1×10^5 cfu/mL): 10.94 (9.97-12.03) days
- LT50 (95% confidence intervals) in days (fall armyworm; clothianidin 60 mg/L, isolate O333A4 1×10^5 cfu/mL): 22.94 (19.21-27.62) days
- mortality at 60 µg/mL (fall armyworm; 96 h, read-out: % Mortality (4DAT), 3rd instar, clothianidin 60 mg/L, isolate O333A4 1×10^5 cfu/mL): 0%
- mortality at 60 µg/mL (fall armyworm; 120 h, read-out: % Mortality (5DAT), 3rd instar, clothianidin 60 mg/L, isolate O24G3R 1×10^5 cfu/mL): 5%
- mortality at 60 µg/mL (fall armyworm; 120 h, read-out: % Mortality (5DAT), 3rd instar, clothianidin 60 mg/L, isolate O333A4 1×10^5 cfu/mL): 0%
- mortality at 60 µg/mL (fall armyworm; 144 h, read-out: % Mortality (6DAT), 3rd instar, clothianidin 60 mg/L, isolate O24G3R 1×10^5 cfu/mL): 11%
- mortality at 60 µg/mL (fall armyworm; 168 h, read-out: % Mortality (7DAT), 3rd instar, clothianidin 60 mg/L, isolate O43NEW 1×10^5 cfu/mL): 0%
- mortality at 60 µg/mL (fall armyworm; 168 h, read-out: % Mortality (7DAT), 3rd instar, clothianidin 60 mg/L, isolate O333A4 1×10^5 cfu/mL): 5%
- mortality at 60 µg/mL (fall armyworm; 240 h, read-out: % Mortality (10DAT), 3rd instar, clothianidin 60 mg/L, isolate O43NEW 1×10^5 cfu/mL): 0%
- mortality at 60 µg/mL (fall armyworm; 312 h, read-out: % Mortality (13DAT), 3rd instar, clothianidin 60 mg/L, isolate O43NEW 1×10^5 cfu/mL): 11%
- % Mort. Chem. (fall armyworm; Clothianidin 60 mg/L, 5 DAT): 5%
- % Mort. Chem. (fall armyworm; Clothianidin 60 mg/L, 7 DAT): 5%
- % Mort. Chem. (fall armyworm; Clothianidin 60 mg/L, 10 DAT): 0%

Compound: CC1(C)[C@H](C(=O)O[C@H](C#N)c2cccc(Oc3ccccc3)c2)[C@@H]1/C=C(\Cl)C(F)(F)F (racemic) [λ-cyhalothrin]
- LT50 (95% confidence intervals) (fall armyworm; λ-cyhalothrin […], isolate O43NEW 1×10^5 cfu/mL): 5.20 days
- LT50 Chem. (fall armyworm; λ-cyhalothrin alone […]): 5.20 days

Source: patent publication US11716994B2, “Combinations of Yersinia entomophaga and pesticides or other substances” (priority 2017, dated 2023)
